Consider 1 substance from paper PMC4516563 (Biochimica et biophysica acta, 2015).

The conditions of data set [1]: pharmacokinetic studies, clinical trials in patients; cited from earlier work.
Data set [2] relates to human pancreatic cancer PANC1. The note with it: disc diffusion, 30-45 ug per disc, 7-10 days; result in words. On the technique in general: Agar diffusion results depend on both activity and mobility in agar.
The next data set relates to human brain U251N. The note with it: disc diffusion, 30-45 ug per disc, 7-10 days; result in words.
Another data set concerns human colon HCT116. The following applies: disc diffusion, 30-45 ug per disc, 7-10 days; result in words.

Consider Kahalalide F [KF], for which the half-life result in data set [1] is listed as “approximately 30 min”. Moreover, in data set [2], the “cytotoxicity based on the zone assay, PANC-1” value is on record as “minimal”. For the same substance, in the data set with human brain U251N, the “cytotoxicity based on the zone assay, U251N” value is listed as “minimal”. The “cytotoxicity based on the zone assay, HCT-116” value in the data set on human colon HCT116 is given as “minimal”.
